Measured values reported in patent publication US10870641B2, “Pyridazinones as PARP7 inhibitors” (Ribon Therapeutics Inc., priority 2018, dated 2020).

Legend:
[1] = test system: RAW264.7 mouse macrophages; assay: Induction of interferon-beta levels in RAW264.7 macrophages in the presence of STING agonist DMXAA (FIG. 3); type: cell-based
[2] = target: TIPARP (PARP7) (Homo sapiens (Human), UniProt Q7Z3E1); assay: Enzymatic assay for inhibition of PARP7: displacement of biotinylated Probe A (TR-FRET); type: binding; settings: TR-FRET displacement of Probe A from TIPARP
TIPARP (PARP7), sequence (Q7Z3E1 whole entry): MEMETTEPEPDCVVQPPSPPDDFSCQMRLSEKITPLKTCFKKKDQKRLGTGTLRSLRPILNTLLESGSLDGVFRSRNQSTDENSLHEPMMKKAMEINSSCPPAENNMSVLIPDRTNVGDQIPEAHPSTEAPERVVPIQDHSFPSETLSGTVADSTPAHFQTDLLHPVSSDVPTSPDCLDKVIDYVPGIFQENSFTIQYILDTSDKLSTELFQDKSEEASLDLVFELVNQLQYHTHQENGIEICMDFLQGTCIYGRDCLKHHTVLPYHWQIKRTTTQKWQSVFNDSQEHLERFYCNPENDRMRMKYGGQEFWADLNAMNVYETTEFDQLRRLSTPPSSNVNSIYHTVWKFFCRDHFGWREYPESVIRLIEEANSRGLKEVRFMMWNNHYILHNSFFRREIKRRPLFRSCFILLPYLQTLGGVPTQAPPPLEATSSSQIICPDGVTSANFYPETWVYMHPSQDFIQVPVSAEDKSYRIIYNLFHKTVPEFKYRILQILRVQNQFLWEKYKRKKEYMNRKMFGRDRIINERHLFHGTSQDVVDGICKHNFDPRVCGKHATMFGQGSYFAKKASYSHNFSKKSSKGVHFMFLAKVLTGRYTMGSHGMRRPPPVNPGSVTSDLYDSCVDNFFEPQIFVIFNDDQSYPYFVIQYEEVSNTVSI
Procedure: 20 nL of a dose response curve of each test compound was spotted in black 384-well polystyrene proxiplates (Perkin Elmer) using a Mosquito (TTP Labtech). […] Reactions were incubated at 25° C. for an additional 30 min, then read on an Envision plate reader equipped with a LANCE/DELFIA top mirror (Perkin Elmer) using excitation of 320 nm and emission of 615 nm and […] with a 90 μs delay. The ratio of the 665/615 nm emission were calculated for each well to determine the amount of complex of TIPARP and Probe A in each well. […] The Hill Coefficient is normally allowed to float but may also be fixed at 1 in a 3-parameter fit. Y is the % inhibition and X is the compound concentration.

[3] = test system: panel of cancer cell lines; assay: Inhibition of cancer cell growth, 72 hrs (CellTiter-Glo), GI50, Table A-2; type: cell-based
Procedure: (§1) Example C: Inhibition of Cancer Cell Growth by Treatment with PARP7 Inhibitors
(§2) Table A-2 and Table A-3 (below) represents the concentration that causes 50% growth inhibition (GI50) in a panel of cancer cell lines with Compound 18B and Compound 561. Cells were plated into 384-well plates at a pre-specified density in fetal bovine serum-containing media. Cells were treated with compound or vehicle (DMSO) 24 hrs later, and a day zero plate was collected for analysis. Test compound plates were incubated continuously for 72 hrs (Table A-2) or 144 hours (Table A-3) cell growth was assessed using a luminescent cell viability assay (CellTiter-Glo, Promega). The GI50 was determined by correcting for the cell count at time zero (time of treatment) and plotting data as percent growth relative to vehicle-treated cells.

[4] = test system: NCI-H1373 lung cancer cells; assay: Inhibition of cancer cell growth in NCI-H1373 cells (FIG. 2); type: cell-based, human
[5] = test system: CT26 mouse colon cancer cells; assay: Induction of interferon-beta levels in CT26 cells in the presence of STING agonist DMXAA (FIG. 3); type: cell-based
[6] = test system: CT26 cells; assay: Proliferation of CT26 cells in the presence of PARP7 inhibitors (CellTiter-Glo); type: cell-based, mouse; settings: 4 days incubation
Procedure: Example F: Proliferation of CT26 Cells in the Presence of PARP7 Inhibitors
CT26 cells were plated in a 384-well plate and allowed to adhere for several hours before being treated with Compound 18B. Cells were incubated with compound for 4 days prior to processing with CellTiter-Glo reagent (Promega). Luminescence was measured with a Perkin Elmer Envision and percent inhibition was calculated using the vehicle (DMSO) average as 0% inhibition. Non-linear regression analysis was performed using a 4 parameter (variable slope) fit in GraphPad Prism.

[7] = test system: panel of cancer cell lines; assay: Inhibition of cancer cell growth, 144 hours (CellTiter-Glo), GI50, Table A-3; type: cell-based; settings: MDA-MIB-468 cell line, breast adenocarcinoma
Procedure: as §1, §2

[8] = test system: human NCI-H1373 lung cancer xenograft; assay: Tumor growth in human NCI-H1373 lung cancer xenograft (FIG. 7A); type: in vivo; settings: once daily administration
[9] = test system: murine CT26 colon cancer syngeneic model; assay: Tumor growth in murine CT26 colon cancer syngeneic model (FIG. 6A-C, 7B); type: in vivo, mouse; settings: once or twice daily administration, FIG. 7B
[10] = test system: NCI-H1373 cells; assay: Inhibition of tumor growth by oral dosing, human NCI-H1373 lung cancer xenograft; type: in vivo, SCID mice
From the text: (§3) Example H: Inhibition of Tumor Growth by Oral Dosing with a PARP7 Inhibitor
(§4) The effect of Compound 561 on tumor growth was studied in a human NCI-H1373 lung cancer xenograft and a murine CT26 colon cancer syngeneic model.
For the NCI-H1373 study, SCID mice were inoculated subcutaneously in the right flank with NCI-H1373 cells for tumor development. After 5 days of tumor growth, mice with 89-148 mm^3 tumors were randomized into treatment groups with mean tumor volumes of 121 mm^3. The treatments were started from the next day post randomization (defined randomization day as day 0) and were treated with vehicle (50% Labrasol) or Compound 561 (62.5, 125, 250, and 500 mg/kg) once a day for 28 days by oral gavage. Tumor volumes were determined by manual calipers every 2-3 days. Mean tumor volume and SEM are plotted. QD: once a day; PO: per oral administration. Statistical significance is calculated using two-way ANOVA followed by Bonferroni post-tests in which the treatment groups were compared to vehicle control (****P<0.0001).

[11] = test system: CT26 cells; assay: Inhibition of tumor growth by oral dosing, murine CT26 colon cancer syngeneic model; type: in vivo; settings: BALB/c mice, 125-500 mg/kg BID or 500 mg/kg QD, 21 days
From the text: as §3, §4
For the CT26 study, BALB/c mice were inoculated subcutaneously in the right flank with CT26 cells for tumor development. After 5 days of cell inoculation, mice with 36-79 mm^3 tumors were randomized into treatment groups with mean tumor volumes of 54 mm^3. The treatments were started from the next day post randomization (defined randomization day as day 0) and were treated with vehicle (25 or 50% Labrasol) or Compound 561 BID (2 times a day every 12 hours) at doses ranging from 125-500 mg/kg or QD (once a day) at 500 mg/kg for 21 days by oral gavage or needle subcutaneously. Tumor volumes were determined by manual calipers every 2-3 days. Mean tumor volume and SEM are plotted. BID: twice a day; PO: per oral administration; QD: once a day; SC: per subcutaneous administration. The first two doses for vehicle and Compound 561 500 mg/kg in the QD groups were delivered by subcutaneous injection. […] Statistical significance is calculated using two-way ANOVA followed by Bonferroni post-tests in which the treatment groups were compared to vehicle control (****P<0.0001).

IC50 [2] [nM] | GI50 ([3]; 72 h, GSS cell line, stomach adenocarcinoma) [nM] | GI50 ([3]; LUDLU-1, 72 h, LUDLU-1 cell line, lung squamous cell carcinoma) [nM] | GI50 [7] [nM] | SMILES | interferon-beta (IFN-β) levels [1] | growth of NCI-H1373 lung cancer cells [4] | interferon-beta (IFN-β) levels [5] | proliferation in CT26 cells in vitro [6] | tumor growth [8] | tumor growth [9] | tumor regression ([10]; 62.5 to 500 mg/kg once a day for 28 days, all dose levels) | tumor growth ([10]; SCID mice, once daily oral gavage, 28 days) | tumor growth [11]
< 100 | 100 to 1000 | 100 to 1000 |  | N#Cc1ccc(N2CCN(C(=O)c3cccc(OC[C@@H]4c5ccccc5CN4c4cn[nH]c(=O)c4C(F)(F)F)c3)CC2)nc1 [Example 18B, 6-[4-[(3-[[(1S)-2-[6-Oxo-5-(trifluoromethyl)-1,6-dihydropyridazin-4-yl]-2,3-dihydro-1H-isoindol-1-yl]methoxy]phenyl)carbonyl]piperazin-1-yl]pyridine-3-carbonitrile] | induction of interferon-beta (IFN-β) levels | dose-dependent decrease in growth | induction of interferon-beta (IFN-β) levels | do not inhibit proliferation |  |  |  |  | 
 |  |  | ≥ 1000 | C[C@@H](COCCC(=O)N1CCN(c2ncc(C(F)(F)F)cn2)CC1)Nc1cn[nH]c(=O)c1C(F)(F)F [Example 561, 5-[[(2S)-1-(3-oxo-3-[4-[5-(trifluoromethyl)pyrimidin-2-yl]piperazin-1-yl]propoxy)propan-2-yl]amino]-4-(trifluoromethyl)-2,3-dihydropyridazin-3-one] |  |  |  |  | significantly reduces tumor growth | significantly reduces tumor growth | complete tumor regression | significantly reduces tumor growth | significantly reduces tumor growth
